# Test results published in ChEMBL document CHEMBL3632477 (2015).
# Target: Glucagon-like peptide 1 receptor (Homo sapiens, UniProt P43220)
# Assay: Agonist activity at human GLP-1R expressed in CHO-K1 cells assessed as increase in cAMP level incubated for 30 mins
# Assay type: functional, cell-based
# Chain of Glucagon-like peptide 1 receptor (P43220 whole entry): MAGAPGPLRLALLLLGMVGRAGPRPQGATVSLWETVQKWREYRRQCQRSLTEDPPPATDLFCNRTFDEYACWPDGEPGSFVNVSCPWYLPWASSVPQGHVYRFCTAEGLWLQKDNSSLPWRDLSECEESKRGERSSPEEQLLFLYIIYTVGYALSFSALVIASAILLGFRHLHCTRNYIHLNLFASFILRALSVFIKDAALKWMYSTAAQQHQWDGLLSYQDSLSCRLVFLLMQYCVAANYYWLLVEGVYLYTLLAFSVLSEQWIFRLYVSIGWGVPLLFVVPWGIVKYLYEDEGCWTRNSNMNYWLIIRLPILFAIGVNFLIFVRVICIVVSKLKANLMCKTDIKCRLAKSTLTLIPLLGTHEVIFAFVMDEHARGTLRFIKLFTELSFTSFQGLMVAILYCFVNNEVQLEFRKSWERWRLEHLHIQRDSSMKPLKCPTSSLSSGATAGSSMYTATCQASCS
compound,measurement,value
CC[C@H](C)[C@@H]1NC(=O)[C@H](CCC(=O)O)NC(=O)[C@@H]2CCCN2C(=O)[C@H](Cc2cnc[nH]2)NC(=O)[C@H](CC(=O)O)NC(=O)[C@H](Cc2ccc(O)cc2)NC(=O)[C@H](CC(N)=O)NC(=O)[C@@H]2CSSC[C@@H]3NC(=O)CNC(=O)CNC(=O)CNC(=O)[C@H](C)NC(=O)[C@H](C)NC(=O)CNC(=O)CNC(=O)[C@H](CSSC[C@H](NC3=O)C(=O)N[C@@H](CO)C(=O)N[C@@H](CC(=O)O)C(=O)N3CCC[C@H]3C(=O)N[C@@H](CCCNC(=N)N)C(=O)N2)NC1=O,EC50,0.14 nM
